The values below come from PMC8230073, “The Role of Anthocyanins, Deoxyanthocyanins and Pyranoanthocyanins on the Modulation of Tyrosinase Activity: An In Vitro and In Silico Approach” (International Journal of Molecular Sciences, 2021).

The target of data set [1] is T1, mushroom tyrosinase (Agaricus bisporus, UniProt C7FF04).
T1 construct: purchased Sigma Aldrich T3824-250 KU
Nature of the data set: Mushroom tyrosinase inhibition assay (L-DOPA oxidation to dopachrome). Type of data set: biochemical. As for the experimental part:
Both were dissolved in 20 mM phosphate buffer solution, pH 6.8. First, 20 µL from a freshly prepared stock solution of mushroom tyrosinase (270 U/mL) and 75 µL of test compounds stock solutions (20 mM PBS, pH 6.8) were mixed and pre-incubated at 37 °C for 15 min. Then, 30 µL of 6 mM L-DOPA was added to the reaction mixture, followed by an incubation of 20 min at 37 °C. During this reaction, L-DOPA is converted to dopachrome (a precursor of melanin), visually detected by the change of color from colorless to orange/brown, resulting in an absorbance increase, recorded spectrophotometrically at 475 nm on a Flex Station 3 Multi-Mode Microplate Reader (Molecular Devices). The inhibition rate was calculated as follows:(1) % Tyrosinase inhibition=(1−A−B/C−D)×100 where A and B represent the final and initial optical densities of the reaction in the presence of the tested compounds, while C and D represent the final and initial optical densities of the reaction in their absence, respectively. […] Experiments were carried out in triplicate and repeated at least 3 times.

The target of data set [2] is T1, mushroom tyrosinase. Nature of the data set: Kinetic analysis of tyrosinase inhibition. The data set is classed as biochemical. The source says:
GraphPad Prism 8.2.1 was used to fit the experimental data to these four models, all of them compared with each other. Akaike’s Information Criteria (AICc) approach was used to compare the fit of competitive, uncompetitive, and noncompetitive models, while extra sum-of-squares F test was used to compare the mixed model with the remaining three models, as they are considered to be special cases of the mixed model general equation.
Additionally, the mixed model fitting includes an extra parameter, the alpha (α) value, which represents a useful quantitative indicator of the mechanism of inhibition.
Initial velocity of the enzymatic reaction, V0, was determined from the slope of the curve at the initial phase of the reaction, in the presence of increasing concentrations of each compound (25–100 μM) and L-dopa (0.10–1.0 mM) and then plotted as a function of the corresponding substrate concentration, [S]. GraphPad Prism 8.2.1 program was used to fit the obtained data into the Michaelis–Menten model and to determine the kinetic parameters Vmax and KM (maximal reaction velocity and Michaelis–Menten constant, respectively).

The conditions of data set [3]: pH 7.4, cited from earlier work; for fraction in quinoidal base form: 7-A^− and 8-A, ref [20],[22].
The mark [4] stands for this setting: 50 µM compound, substrate L-DOPA, pH 6.8, 37 °C, mean ± SEM, read-out: % mTYR Inhibition at 50 µM.

Like-named read-outs stand apart in the source and are kept apart here.

T1 sequence (C7FF04 1-392): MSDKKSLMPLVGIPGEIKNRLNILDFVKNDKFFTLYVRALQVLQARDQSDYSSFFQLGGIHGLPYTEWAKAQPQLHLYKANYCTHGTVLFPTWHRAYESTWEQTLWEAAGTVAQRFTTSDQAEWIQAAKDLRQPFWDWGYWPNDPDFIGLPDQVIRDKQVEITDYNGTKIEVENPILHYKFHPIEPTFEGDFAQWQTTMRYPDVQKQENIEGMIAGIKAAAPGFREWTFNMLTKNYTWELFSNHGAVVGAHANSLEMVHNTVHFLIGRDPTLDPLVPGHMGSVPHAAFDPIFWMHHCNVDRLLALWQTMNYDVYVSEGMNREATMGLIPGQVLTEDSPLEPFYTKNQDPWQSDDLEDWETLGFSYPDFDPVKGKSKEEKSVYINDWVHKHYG

For orientation: IC50 means the midpoint of a concentration-inhibition curve. As usually defined, the inhibition is the drop in the measured response relative to a control, in per cent. As usually defined, the Ki is the dissociation constant of the complex between target and ligand, obtained from inhibition or displacement. Low values mean a stronger hold on the target, high ones a looser hold on the target. The Vmax is the top rate of the reaction or transport when substrate is in excess. With `Oc1cc(O)c2ccc(-c3ccc(O)c(O)c3)[o+]c2c1` [Compound 1, luteolinidin], it took 39.2 ± 2.71 µM to reach half-maximal inhibition on mushroom tyrosinase [1] (IC50). Moreover, the inhibition at 50 µM on mushroom tyrosinase [1] (pH 6.8, read-out: % mTYR Inhibition at 50 µM) was 58.5 ± 2.08%. At mushroom tyrosinase [2], the affinity corresponds to a Ki of 15.1 ± 1.18 µM. For the same molecule, the Vmax is 45.8 µM/min at mushroom tyrosinase [2] (L-DOPA, inhibitor 25 μM); 45.8 µM/min on mushroom tyrosinase [2] (L-DOPA, inhibitor 50 μM); 45.8 µM/min at mushroom tyrosinase [2] (L-DOPA, inhibitor 75 μM); 45.8 µM/min on mushroom tyrosinase [2] (L-DOPA, inhibitor 100 μM). The molecule also displayed a α on mushroom tyrosinase [2] (alpha value from fitting of mixed model equation) of 21.00. For the same molecule, the “Inhibition Type” value on mushroom tyrosinase [2] (diphenolase activity, L-DOPA, model comparison in GraphPad Prism) is on record as “Competitive”.

As to `O=C(O)c1cc2c(O[C@@H]3O[C@H](CO)[C@@H](O)[C@H](O)[C@H]3O)c(-c3ccc(O)c(O)c3)oc3cc(=O)cc(o1)c32` [Compound 5, carboxypyranocyanidin-3-O-glucoside], the inhibition at 50 µM on mushroom tyrosinase [1] (setting [4]) stood at 22.1 ± 0.962%. Moreover, the inhibition at 200 µM at mushroom tyrosinase [1] (200 μM compound, L-DOPA oxidation (Figure 3), read-out: inhibition rate at 200 μM) is about 40%. Moreover, the “fraction under the form A^2−” value in data set [3] (ref [20],[21]) was about 100%.

For the molecule `Cc1cc2c(O[C@@H]3O[C@H](CO)[C@@H](O)[C@H](O)[C@H]3O)c(-c3ccc(O)c(O)c3)oc3cc(=O)cc(o1)c32` [Compound 7, methylpyranocyanidin-3-O-glucoside], the inhibition at 50 µM on mushroom tyrosinase [1] (setting [4]) was 16.2 ± 1.14%. Besides, in data set [3], the “fraction in quinoidal base form” value is 80%.

Regarding `COc1cc(-c2oc3cc(=O)cc4oc(C)cc(c2O[C@@H]2O[C@H](CO)[C@@H](O)[C@H](O)[C@H]2O)c43)cc(OC)c1O` [Compound 8, methylpyranomalvidin-3-O-glucoside], the inhibition at 50 µM at mushroom tyrosinase [1] (setting [4]) turned out to be 9.74 ± 3.36%. Moreover, in data set [3], the “fraction in quinoidal base form” value is 80%.
